Where two headings read alike, the source gives them in different places.
Tests used:
Proteus vulgaris = experiment: standard disc-plate assay; assay type: cell-based; details: read-out: Zone Diameters
Serratia marcescens = experiment: standard disc-plate assay; assay type: cell-based; details: read-out: Zone Diameters
lymphosarcoma 6L3 HED = experiment: tumor growth test in mice; assay type: in vivo; details: tests in mice
Text: (§1) A52688 factors A, C, D, E, F, G, H, J and K and the specified acyl esters of factors A, C, D, E, G, H, J and K are especially useful as oncolytic agents.

ovarian M-5 tumor = experiment: tumor growth test in mice; assay type: in vivo; details: tests in mice
Text: as §1

Lewis lung tumor = experiment: tumor growth test in mice; assay type: in vivo; details: tests in mice
Text: as §1

[1] = system: plasma cell myeloma X-5563; experiment: tumor growth test in mice; assay type: in vivo; details: tests in mice
Text: as §1

solid leukemia P1534J = experiment: tumor growth test in mice; assay type: in vivo; details: tests in mice
Text: as §1

[2] = system: Bacillus stereothermophilus; experiment: standard disc-plate assay; assay type: cell-based; details: read-out: Zone Diameters
Adenocarcinoma 755 = experiment: murine-transplanted tumor adenocarcinoma 755 in mice; assay type: in vivo; details: for Percent Tumor Inhibition / Toxic Deaths: daily for 10 days
Procedure: as §1
Table X summarizes the results of experiments in which mice bearing the murine-transplanted tumor adenocarcinoma 755 were treated with compounds of this invention. In each test the compound was administered by the intraperitoneal route at specified dose levels. The compound was administered over a ten-day period, either on a daily basis or on days one, five and nine, as indicated.

Candida albicans = experiment: standard disc-plate assay; assay type: cell-based; details: read-out: Zone Diameters
Bacillus subtilis = experiment: standard disc-plate assay; assay type: cell-based; details: read-out: Zone Diameters
Escherichia coli = experiment: standard disc-plate assay; assay type: cell-based
Procedure: In Table IX the standard discplate-assay activity of the A52688 factors is summarized. Activity is measured as the diameter (in mm) of the observed zone of inhibition; the diameter of the disc used in each case was 6.35 mm.

Micrococcus luteus = experiment: standard disc-plate assay; assay type: cell-based; details: read-out: Zone Diameters
[3] = system: Trichophyton mentagroprophytes; experiment: standard disc-plate assay; assay type: cell-based; details: read-out: Zone Diameters
Salmonella gallinarium = experiment: standard disc-plate assay; assay type: cell-based; details: read-out: Zone Diameters
Staphylococcus aureus = experiment: standard disc-plate assay; assay type: cell-based; details: read-out: Zone Diameters
Neurospora crassa = experiment: standard disc-plate assay; assay type: cell-based; details: read-out: Zone Diameters
Pseudomonas solanacearum = experiment: microbe, parasite or virus in culture; assay type: cell-based; details: Ralstonia solanacearum; conc 0.1 mg/ml; read-out: Zone Diameters
[4] = system: Saccharomyces pastorianus; experiment: standard disc-plate assay; assay type: cell-based; details: read-out: Zone Diameters
Pseudomonas aeruginosa = experiment: standard disc-plate assay; assay type: cell-based; details: read-out: Zone Diameters
acute toxicity in mice = details: mouse, in vivo, formulated in aqueous PVP
Text: ^a Compounds formulated in aqueous PVP
^b Route test compound administered

Mycobacterium avium = experiment: standard disc-plate assay; assay type: cell-based; details: read-out: Zone Diameters
moisture absorption = assay type: physicochemical
[5] = read-out: Zone Diameters, in minimal medium, conc 0.1 mg/ml, disc 6.35 mm

Row | SMILES | zone of inhibition at 100 µg/mL (Proteus vulgaris) [mm] | zone of inhibition at 100 µg/mL (Serratia marcescens) [mm] | zone of inhibition at 100 µg/mL [2] [mm] | zone of inhibition at 100 µg/mL (Candida albicans) [mm] | zone of inhibition at 100 µg/mL (Bacillus subtilis) [mm] | zone of inhibition at 100 µg/mL (Escherichia coli; [5]) [mm] | zone of inhibition at 100 µg/mL (Micrococcus luteus) [mm] | zone of inhibition at 100 µg/mL [3] [mm] | zone of inhibition at 100 µg/mL (Salmonella gallinarium) [mm] | zone of inhibition at 100 µg/mL (Staphylococcus aureus) [mm] | zone of inhibition at 100 µg/mL (Neurospora crassa) [mm] | zone of inhibition at 100 µg/mL (Pseudomonas solanacearum) [mm] | zone of inhibition at 100 µg/mL [4] [mm] | zone of inhibition at 100 µg/mL (Pseudomonas aeruginosa) [mm] | zone of inhibition at 100 µg/mL (Mycobacterium avium) [mm] | also measured
1 | [C-]#[N+]C(=CC1=C[C@@H](O)[C@H](O)CC1)C(=CC1CCC(OC(=O)C=C(C)C)CC1)[N+]#[C-] (relative stereo) [Factor A] | 24 | 20 | 35 | 33 | 30 | 20 | 36 | 45 | 21 | 26 | 39 | 26 | 20 | 23 | 14 | growth of tumor (lymphosarcoma 6L3 HED): inhibited the growth; growth of tumor (ovarian M-5 tumor): inhibited the growth; growth of tumor (Lewis lung tumor): inhibited the growth; growth of tumor [1]: inhibited the growth; growth of tumor (solid leukemia P1534J): inhibited the growth; Percent Tumor Inhibition (Adenocarcinoma 755; 0.25 mg/kg i.p.): 3%; Toxic Deaths (Adenocarcinoma 755; 0.25 mg/kg i.p., of 10 mice tested (9 for factor E)): 0; Percent Tumor Inhibition (Adenocarcinoma 755; 0.30 mg/kg i.p.): 55%; Toxic Deaths (Adenocarcinoma 755; 0.30 mg/kg i.p., of 10 mice tested): 1; Percent Tumor Inhibition (Adenocarcinoma 755; 0.35 mg/kg i.p.): 69%; Toxic Deaths (Adenocarcinoma 755; 0.35 mg/kg i.p., of 10 mice tested): 1; Percent Tumor Inhibition (Adenocarcinoma 755; 0.40 mg/kg i.p.): 91%; Toxic Deaths (Adenocarcinoma 755; 0.40 mg/kg i.p., of 9 mice tested): 6; growth of tumor (Adenocarcinoma 755; tests in mice): inhibited the growth; zone of inhibition at 100 µg/mL (Escherichia coli; read-out: Zone Diameters, conc 0.1 mg/ml, disc 6.35 mm): 24 mm; LD50 (acute toxicity in mice; ip, intraperitoneal, read-out: Intraperitoneal LD50): 3.12 mg/kg; LD50 (acute toxicity in mice; oral, read-out: Oral LD50): 8.84 mg/kg
2 | [C-]#[N+]C(=CC1CCC(OC(=O)CC(C)C)CC1)C(=CC1(OC(C)=O)C=CC(O)CC1)[N+]#[C-] (stereo not drawn) [Factor K] | 19 | 11 | 25 | 20 | 18 | 11 | 29 | 32 | 17 | 25 | 37 | 19 | 20 | 11 | 11 | moisture absorption (moisture absorption): absorbs moisture readily
